Test results from patent US12201594B2, “Methods and compositions for treatment of pain using capsaicin” (Centrexion Therapeutics Corporation, priority 2017, dated 2025).

What was measured:
[1] = tested on: osteoarthritic knee joint pain; experiment: Patient Global Impression of Change (PGIC), Example 1; format: in vivo, human
Description: (§1) Human patients aged 45-80 years with chronic knee osteoarthritis, stable moderate to severe pain, and intolerability to analgesics were randomized to receive a single intra-articular injection of placebo into the osteoarthritic knee, a single intra-articular injection of a 0.5 mg dose of capsaicin into the osteoarthritic knee, or a single intra-articular injection of a 1.0 mg dose of capsaicin into the osteoarthritic knee.
(§2) The test article (i.e., placebo or capsaicin) was administered according to the following procedure: (i) applying for a duration of about 15 minutes a cooling article to an exterior surface of a human patient's knee presenting with osteoarthritic knee joint pain, wherein the cooling article was a Breg cooling wrap cooled by circulating ice-cold water, (ii) administering by injection into the intra-articular space of the joint of the knee a 15 mL aliquot of a 2% w/w lidocaine solution in saline, (iii) applying for a duration of about 30 minutes a cooling article to an exterior surface of the knee, wherein the cooling article was a Breg cooling wrap cooled by circulating ice-cold water, (iv) administering by injection into the intra-articular space of the joint of the knee a 4 mL aliquot of a solution containing water, polyethylene glycol having a number-average molecular weight of about 300 g/mol, and for patients receiving capsaicin a dose of capsaicin in an amount of 0.5 mg or 1.0 mg, and (v) applying a cooling article to an exterior surface of the knee for a duration of at least about 30 minutes (and up to 60 minutes upon patient request), wherein the cooling article was a Breg cooling wrap cooled by circulating ice-cold water.
(§3) Patients completed Patient Global Impression of Change (PGIC; change vs baseline in index knee on 7-point scale; 1=very much improved; 7=very much worse, with scores of 1 or 2 indicating significant improvement) and Patient-specific Functional Scale (PSFS; rate≤3 important activities difficult to perform due to index knee pain on 0-10 scale; 0-able to perform; 10=unable to perform) at scheduled visits. Odds ratios for PGIC scores were calculated with chi-square tests. Changes in Western Ontario and McMaster Universities Osteoarthritis Index (WOMAC) B stiffness subscale and WOMAC C function subscale through week 24 were also assessed. PSFS, WOMAC B, and WOMAC C scores were evaluated using a mixed model for repeated measures. Statistical tests were 2-sided (alpha, P=0.10).

[2] = tested on: osteoarthritic knee joint pain; experiment: Patient-specific Functional Scale (PSFS), Example 1; format: in vivo, human
Description: as §1, §2, §3

[3] = tested on: osteoarthritic knee joint pain; experiment: WOMAC B stiffness subscale and WOMAC C function subscale, Example 1; format: in vivo, human; conditions: 1.0 mg dose; through week 16
Description: Human patients aged 45-80 years with chronic knee osteoarthritis, stable moderate to severe pain, and intolerability to analgesics were randomized to receive a single intra-articular injection of placebo into the osteoarthritic knee, a single intra-articular injection of a 0.5 mg dose of capsaicin into the osteoarthritic knee, or a single intra-articular injection of a 1.0 mg dose of capsaicin into the osteoarthritic knee. […]
as §3, with “Statistical tests were 2-sided (alpha, P=0.10).” left out

[4] = tested on: human patients experiencing osteoarthritic knee joint pain; experiment: Safety assessments (TEAEs, SAEs, procedural pain ratings) after single intra-articular injection of capsaicin with cooling and lidocaine, Example 1; format: in vivo; conditions: for All TEAEs / Arthralgia / Hepatic enzyme increased / Influenza / Joint effusion / Nasopharyngitis / Upper respiratory tract infection: through 24 weeks
Description: as §2, with “Human patients experiencing osteoarthritic knee joint pain received either placebo, a 0.5 mg intra-articular injection of capsaicin into the osteoarthritic knee joint,” for “The test article (i.e., placebo”, “a 1.0 mg intra-articular injection of capsaicin into the osteoarthritic knee joint. Transient burning sensation due to administration of capsaicin” for “capsaicin)”, “attenuated by administering capsaicin” for “administered”, “60)” for “60”, “water. Further description of experimental procedures and results are provided below:” for “water.”
as §1, §2
Safety assessments included treatment-emergent adverse events (TEAEs), serious AEs (SAEs), laboratory abnormalities, and procedural pain ratings (none, mild, moderate, moderately severe, severe). The procedure pain ratings characterize the extent of transient burning sensation experienced by patients due to administration of capsaicin.

[5] = tested on: pain due to an intermetatarsal neuroma; experiment: Average walking pain due to intermetatarsal neuroma (NPRS) after two doses of trans-capsaicin, Example 3; format: in vivo, human; conditions: 200 μg
Description: Twenty-seven adult, human patients experiencing pain due to an intermetatarsal neuroma were treated by administering a first dose of trans-capsaicin (200 μg of trans-capsaicin) and then, after at least 11 weeks, administered a second dose of trans-capsaicin (200 μg of trans-capsaicin). Patients rated their average walking pain due to the intermetatarsal neuroma on a Numeric Pain Rating Scale (NPRS), where pain is characterized by the patient on a scale of zero to ten (with zero being “no pain”, and ten being “worst possible pain”). Patients rated their average walking pain due to the intermetatarsal neuroma on (i) just prior to receiving the injection of trans-capsaicin and (ii) four (4) weeks after receiving each injection of trans-capsaicin. Patients reported a reduction in average walking pain due to the intermetatarsal neuroma when measured at four weeks after injection of trans-capsaicin for each administration of trans-capsaicin. […]
Pain due to the intermetatarsal neuroma was evaluated by having patients rate their average walking pain due to the intermetatarsal neuroma on a Numeric Pain Rating Scale (NPRS), where pain is characterized by the patient on a scale of zero to ten (with zero being “no pain”, and ten being “worst possible pain”). […]

[6] = 2 hours after injection, all groups (capsaicin or placebo)
[7] = either 0.5 mg or 1.0 dose (n = 105)

## COc1cc(CNC(=O)CCCCC=CC(C)C)ccc1O [Capsaicin, N-[(4-hydroxy-3-methoxyphenyl)methyl]-8-methylnon-6-enamide]
[1]; 0.5 mg dose, week 4
  PGIC: Odds Ratio vs Placebo: 1.76
  PGIC: proportion of patients reporting significant improvement in the index knee: 58%
[1]; 0.5 mg dose, week 8
  PGIC: Odds Ratio vs Placebo: 1.89
[1]; 0.5 mg dose, week 12
  PGIC: Odds Ratio vs Placebo: 2.75
[1]; 0.5 mg dose, week 16
  PGIC: Odds Ratio vs Placebo: 2.37
[1]; 0.5 mg dose, week 24
  PGIC: Odds Ratio vs Placebo: 1.68
[1]; 1.0 mg dose, week 4
  PGIC: Odds Ratio vs Placebo: 2.34
  PGIC: proportion of patients reporting significant improvement in the index knee: 64%
[1]; 1.0 mg dose, week 8
  PGIC: Odds Ratio vs Placebo: 2.50
[1]; 1.0 mg dose, week 12
  PGIC: Odds Ratio vs Placebo: 2.40
[1]; 1.0 mg dose, week 16
  PGIC: Odds Ratio vs Placebo: 1.85
[1]; 1.0 mg dose, week 24
  PGIC: Odds Ratio vs Placebo: 1.64
[1]; 1.0 mg dose, weeks 4, 8 and 12
  PGIC: likelihood of significant improvement compared with placebo: greater than two-fold likelihood
[2]; 0.5 mg dose, week 4
  PSFS: LSMD versus Placebo: 0.01
[2]; 0.5 mg dose, week 8
  PSFS: LSMD versus Placebo: −0.03
[2]; 0.5 mg dose, week 12
  PSFS: LSMD versus Placebo: −0.4
[2]; 0.5 mg dose, week 16
  PSFS: LSMD versus Placebo: −0.5
[2]; 0.5 mg dose, week 24
  PSFS: LSMD versus Placebo: −0.05
[2]; 1.0 mg dose, week 4
  PSFS: LSMD versus Placebo: −1.4
[2]; 1.0 mg dose, week 8
  PSFS: LSMD versus Placebo: −0.9
[2]; 1.0 mg dose, week 12
  PSFS: LSMD versus Placebo: −1.1
[2]; 1.0 mg dose, week 16
  PSFS: LSMD versus Placebo: −0.9
[2]; 1.0 mg dose, week 24
  PSFS: LSMD versus Placebo: −0.5
[2]; 1.0 mg dose, weeks 4-16
  PSFS: ability to perform activities versus placebo: significantly improved
[3]
  WOMAC B score, LSMD versus placebo: −2.1
  WOMAC C score, LSMD versus placebo: −14.8
[4]; 0.5 mg dose IA (n = 34)
  All TEAEs: 16 (47) n (%)
  Arthralgia: 3 (8.8) n (%)
  Hepatic enzyme increased: 2 (5.9) n (%)
  Influenza: 1 (2.9) n (%)
  Joint effusion: 3 (8.8) n (%)
  Nasopharyngitis: 1 (2.9) n (%)
  Upper respiratory tract infection: 2 (5.9) n (%)
[4]; 1.0 mg dose IA (n = 71)
  All TEAEs: 21 (30) n (%)
  Arthralgia: 5 (7.0) n (%)
  Hepatic enzyme increased: 1 (1.4) n (%)
  Influenza: 2 (2.8) n (%)
  Joint effusion: 0 n (%)
  Nasopharyngitis: 2 (2.8) n (%)
  Upper respiratory tract infection: 3 (4.2) n (%)
[4]; [6]
  patients reporting mild pain (procedural pain rating): 39%
  patients reporting no pain (procedural pain rating): 50%
[4]; capsaicin 0.5 mg dose
  Incidence of TEAEs: 47%
  TEAEs mild in severity: 29%
  TEAEs moderate in severity: 18%
[4]; capsaicin 0.5 mg dose group, not considered treatment related
  SAE: One SAE (shoulder pain from osteoarthritis)
[4]; capsaicin 1.0 mg dose
  Incidence of TEAEs: 30%
  TEAEs mild in severity: 20%
  TEAEs moderate in severity: 9.9%
  arthralgia (TEAE): 7.0%
[4]; capsaicin regardless of dose
  arthralgia (TEAE): 7.6%
  upper respiratory tract infection (TEAE): 4.8%
[4]; [7]
  All TEAEs: 37 (35) n (%)
  Arthralgia: 8 (7.6) n (%)
  Hepatic enzyme increased: 3 (2.9) n (%)
  Influenza: 3 (2.9) n (%)
  Joint effusion: 3 (2.9) n (%)
  Nasopharyngitis: 3 (2.9) n (%)
  Upper respiratory tract infection: 5 (4.8) n (%)
[4]; single injection, 1.0 mg dose, up to 24 weeks, comparable to placebo
  tolerability / safety profile: well tolerated

## COc1cc(CNC(=O)CCCCC=CC(C)C)ccc1O [trans-capsaicin, N-[(4-hydroxy-3-methoxyphenyl)methyl]-8-methylnon-6-enamide]
[5]; four weeks after first dose, vs prior to first dose
  reduction in average walking pain due to the intermetatarsal neuroma (NPRS): 1.6 point
[5]; four weeks after second dose, vs just prior to second dose
  reduction in average walking pain due to the intermetatarsal neuroma (NPRS): 2.3 point
